Data from US20250257069A1, “JAK INHIBITOR ANALOGS, FORMULATIONS, AND USES THEREOF” (THE REGENTS OF THE UNIVERSITY OF MICHIGAN, priority 2022, published 2025).
Where two headings read alike, the source gives them in different places.

Columns and labels:
[1] = test system: HEL 92.1.7 cells; test: Anti-proliferative assay in HEL cells (CellTiter 96 Aqueous); type: cell-based, Human; details: 3 days
Procedure: (§1) Cell Culture and anti-proliferative assay. […] Cells were incubated at 37° C. in a humidified atmosphere of 5% CO2. Cells were seeded into 96-well culture plates at the density of approximately 8000 cells per well and treated with various concentrations of compounds for 3 days in final volumes of 200 μL. Upon end point, cells were treated using CellTiter 96 Aqueous Assay Reagents (Promega Corporation, Madison, USA) according to the provider's instruction. Briefly, MITS and PMS solution were thawed and mixed (20:1, v/v) before use and pipet appropriate amount of the mixed solution into each well of the 96 well assay plates. The plates were incubated for 1-4 hours at 37° C. in a humidified atmosphere of 5% CO2. The absorbance at 490 nm was recorded using CYTATION 5 imaging reader (BioTek, VT, USA). IC50 values were calculated using percentage of growth versus untreated control.

[2] = following a single oral dose; cited from earlier work
[3] = test system: SET-2 cells; test: Anti-proliferative assay in SET-2 cells (CellTiter 96 Aqueous); type: cell-based, Human; details: 3 days
Procedure: as §1

[4] = biological target: TYK2 (Homo sapiens (Human), UniProt P29597); test: Kinase-Glo Max TYK2 kinase assay (BPS Bioscience kit); type: biochemical; details: purified enzyme, 0.01-10,000 nM
Procedure: (§2) In vitro activity to inhibit JAK enzymes: JAK1, JAK2, JAK3, TYK2 assay kits were obtained from BPS Bioscience (San Diego, CA, USA). The assays were conducted according to manufacturer's protocols in 96-well microplates. Briefly, master mixtures (25 μL per well) were prepared for JAK1 and TYK2 assays (6 μL 5× kinase assay buffer+1 μL ATP (500 μM)+5 μL×10 IRS1-tide+13 μL distilled water) or for JAK2 and JAK3 assays (6 μl 5× kinase assay buffer+1 μl ATP (500 μM)+1 μl PTK substrate Poly(Glu:Tyr 4:1) (10 mg/mL)+17 μL distilled water), respectively. […] The reaction mixtures were incubated at 30° C. for 40 minutes. Finally, 50 μL of Kinase-Glo Max reagent (Promega, Madison, WL USA) was added to each well and the reactions were performed in darkness for 15 minutes at room temperature. The luminescence of the reaction mixture was read on a Synergy 2 microplate reader (Biotek).

[5] = test system: DSS-induced colitis; test: DSS-induced colitis in mice; type: in vivo, C57BL/6 female mice; details: oral; for improvement of DAI score or disease severity (in words): 1 mg/kg; for mice that developed moderate colitis / mice that developed severe colitis / mice that developed severe colitis with gross bleeding: day 5, n=10
Procedure: In vivo efficacy of MMT3-72 in treatment of DSS-induced colitis in mice: C57BL/6 female mice 6-8 weeks purchased from Charles River Laboratories and were randomly divided into different treatment groups. Acute colitis was induced by administering 3% DSS (MP Biomedicals, CA, USA) in distilled water continuously for 5 days and the control group received pure water (Snider, et al., Methods Mol Biol 2016, 1438, 245-254). […] Drugs were administered every other day orally by gavage in volume of 0.1 mL/10 g body weight. During the model establishment, body weight, stool consistency and gross blood in feces were monitored and recorded daily. After 5 days, mice were sacrificed and blood was collected. Serum was obtained by centrifugation and stored at −80° C. for further immune assay. Colon was excised and the length was measured.
To evaluate the efficacy of MMT3-72 in the treatment of UC in vivo, a colitis model was established in mice using dextran sodium sulfate (DSS). DSS in drinking water could trigger colitis in mice. The DSS-induced colitis model is widely used because of its relatively easy administration and high similarity with human UC. In this study, mice treated with 3% DSS water developed symptoms of colitis such as bloody stools and diarrhea on day 5. Disease activity index (DAI) was monitored for the severeness of disease in mice: Normal stool consistency with negative hemoccult: score 0; Soft stools with positive hemoccult: score 1; Very soft stools with traces of blood: score 2; Watery stools with visible rectal bleeding: score 3. […]. […].

[6] = test system: DSS-induced colitis; test: H&E staining of colon tissues in DSS-induced colitis model; type: in vivo, mice; details: 5, 10 mg/kg
Procedure: H&E Staining of Colon tissues: After dissecting and transecting the colon, a feeding needle and 5 ml syringe were used to intubate and flush the colon with ice-cold PBS until the stool was flushed out. Scissors were used to incise longitudinally from distal to proximal end of the colon and the colon tissue could then be expanded as a flat sheet. The edge of the distal colon was grasped using a pair of forceps and the colon tissue was rotated into a swiss roll. The roll was firmly grasped and transected using a 27 G ½ needle. […] The Swiss roll was then paraffin-embedded, sectioned, mounted, and stained with H&E to determine the extent of damage to the colon from the distal (inside end) to the proximal (outside end).

[7] = biological target: JAK2 (Homo sapiens (Human), UniProt O60674); test: Kinase-Glo Max JAK2 kinase assay (BPS Bioscience kit); type: biochemical; details: purified enzyme, 0.01-10,000 nM
[8] = Pharmacokinetics in mice after oral MMT3-72 (LC-MS/MS of plasma, GI tissues, GI content); type: in vivo, C57BL/6 female mice
Procedure: LC-MS analysis of MMT3-72and MMT3-72-M2 in biological samples: MMT3-72 and MMT3-72-M2 concentrations in plasma (ng/mil) and tissues (ng/g) were determined by the LC-MS/MS method that was developed and validated for this study. The HPLC method was conducted on a Shimadzu LC-20AD HPLC system (Kyoto, Japan), and chromatographic separation was achieved using a Waters XBridage reverse phase C18 column (5 cm×2.1 mm I.D., packed with 3.5 μm). The flow rate of gradient elution was 0.4 ml/min with mobile phase A (0.1% formic acid in purified deionized water) and mobile phase B (0.1% formic acid in acetonitrile). An AB Sciex QTrap 4500 mass spectrometer (AB Sciex, Framingham, USA) in the positive-ion multiple reaction monitoring (MRM) mode was used for detection. Protonated molecular ions and the respective ion products were monitored at the transitions of m/z 811.3>737.4 for MMT3-72 and 472.3>416.0 for the MMT3-72-M2. Data was processed with software Analyst (version 1.6).
Pharmacokinetics in mice. Briefly, C57BL/6 female mice were orally dosed with 10 mg/kg MMT3-72. At 0.5, 2, 4, 12, 24 h, mice were sacrificed, and blood samples were collected by drawing directly from the heart Intestinal tissue samples were collected and homogenized in PBS to 10% homogenate. The contents of small and large intestine were collected and homogenized in PBS. Afterwards, concentrations of MMT3-72, MMT3-72-M2,5-ASA in the plasma, intestinal tissues, and intestinal content were determined by liquid chromatography-tandem mass spectrometry (LC-MS/MS) analysis using method described above.

[9] = biological target: JAK3 (Homo sapiens (Human), UniProt P52333); test: Kinase-Glo Max JAK3 kinase assay (BPS Bioscience kit); type: biochemical; details: purified enzyme, 0.01-10,000 nM
[10] = In-vivo metabolite identification in mouse plasma, colon and feces; details: 6 h after oral 10 mg/kg MMT3-72
Procedure: Activation of MMT73-72 and Metabolite identification: In-vivo metabolite identification was conducted using mouse plasma, colon and feces samples that collected at 6 h after oral administration of MMT3-72 (10 mg/kg), Liquid chromatography tandem mass spectrometry was employed to separate and identify the possible metabolites. The LC-MS/MS method consisted of a Shimadzu LC-20AD HPLC system (Kyoto, Japan). Chromatographic separation of MMT3-72 and its metabolites was achieved using a Waters XBridage reverse phase C18 column (15 cm×2.1 mm I.D., packed with […]). A high resolution AB Sciex X500R QTOF mass spectrometer (AB Sciex, Farmingham, USA) in the positive-ion Information Dependent Acquisition (IDA) mode was used for confirmation of accurate molecular weight. The mass range was recorded from m/z 100 to 1000 Da. The collision energy was set to 50 V for TOF MSMS. Data was collected with software SCIEX OS, and then processed with software Metabolite Pilot 2.0 (AB Sciex, Farmingham, USA).

[11] = biological target: JAK1 (Homo sapiens (Human), UniProt P23458); test: Kinase-Glo Max JAK1 kinase assay (BPS Bioscience kit); type: biochemical; details: purified enzyme, 0.01-10,000 nM
Procedure: as §2

Sequence of JAK1 (P23458 whole entry): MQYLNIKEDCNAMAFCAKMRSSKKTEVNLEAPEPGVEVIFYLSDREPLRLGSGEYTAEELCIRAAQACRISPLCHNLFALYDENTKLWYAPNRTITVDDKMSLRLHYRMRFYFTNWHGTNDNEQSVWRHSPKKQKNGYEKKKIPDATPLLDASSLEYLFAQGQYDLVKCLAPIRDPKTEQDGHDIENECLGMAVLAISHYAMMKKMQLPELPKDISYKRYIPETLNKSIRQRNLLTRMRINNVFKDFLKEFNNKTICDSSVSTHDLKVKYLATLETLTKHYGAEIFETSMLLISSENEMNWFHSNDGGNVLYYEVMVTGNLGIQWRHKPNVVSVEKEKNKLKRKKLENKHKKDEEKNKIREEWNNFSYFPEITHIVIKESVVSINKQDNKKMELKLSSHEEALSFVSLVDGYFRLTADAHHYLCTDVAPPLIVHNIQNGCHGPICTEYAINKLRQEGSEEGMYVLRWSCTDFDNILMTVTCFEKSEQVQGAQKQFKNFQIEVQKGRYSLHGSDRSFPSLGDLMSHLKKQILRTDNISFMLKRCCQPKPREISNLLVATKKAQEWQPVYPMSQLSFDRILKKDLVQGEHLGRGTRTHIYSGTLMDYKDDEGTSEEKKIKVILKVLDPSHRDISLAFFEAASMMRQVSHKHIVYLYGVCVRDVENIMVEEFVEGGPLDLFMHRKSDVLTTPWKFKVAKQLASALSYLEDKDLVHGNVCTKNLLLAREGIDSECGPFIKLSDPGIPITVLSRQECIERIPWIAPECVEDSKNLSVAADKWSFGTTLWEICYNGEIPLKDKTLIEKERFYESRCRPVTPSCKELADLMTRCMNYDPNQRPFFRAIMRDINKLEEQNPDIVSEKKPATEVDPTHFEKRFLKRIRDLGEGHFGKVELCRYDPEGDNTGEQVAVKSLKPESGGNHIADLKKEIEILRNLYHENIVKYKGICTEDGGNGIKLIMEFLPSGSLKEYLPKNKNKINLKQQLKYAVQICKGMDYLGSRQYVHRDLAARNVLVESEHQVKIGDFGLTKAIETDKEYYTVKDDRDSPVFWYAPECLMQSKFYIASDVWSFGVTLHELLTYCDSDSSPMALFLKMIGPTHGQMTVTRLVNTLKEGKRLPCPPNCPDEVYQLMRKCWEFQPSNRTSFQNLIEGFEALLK
Sequence of TYK2 (P29597 whole entry): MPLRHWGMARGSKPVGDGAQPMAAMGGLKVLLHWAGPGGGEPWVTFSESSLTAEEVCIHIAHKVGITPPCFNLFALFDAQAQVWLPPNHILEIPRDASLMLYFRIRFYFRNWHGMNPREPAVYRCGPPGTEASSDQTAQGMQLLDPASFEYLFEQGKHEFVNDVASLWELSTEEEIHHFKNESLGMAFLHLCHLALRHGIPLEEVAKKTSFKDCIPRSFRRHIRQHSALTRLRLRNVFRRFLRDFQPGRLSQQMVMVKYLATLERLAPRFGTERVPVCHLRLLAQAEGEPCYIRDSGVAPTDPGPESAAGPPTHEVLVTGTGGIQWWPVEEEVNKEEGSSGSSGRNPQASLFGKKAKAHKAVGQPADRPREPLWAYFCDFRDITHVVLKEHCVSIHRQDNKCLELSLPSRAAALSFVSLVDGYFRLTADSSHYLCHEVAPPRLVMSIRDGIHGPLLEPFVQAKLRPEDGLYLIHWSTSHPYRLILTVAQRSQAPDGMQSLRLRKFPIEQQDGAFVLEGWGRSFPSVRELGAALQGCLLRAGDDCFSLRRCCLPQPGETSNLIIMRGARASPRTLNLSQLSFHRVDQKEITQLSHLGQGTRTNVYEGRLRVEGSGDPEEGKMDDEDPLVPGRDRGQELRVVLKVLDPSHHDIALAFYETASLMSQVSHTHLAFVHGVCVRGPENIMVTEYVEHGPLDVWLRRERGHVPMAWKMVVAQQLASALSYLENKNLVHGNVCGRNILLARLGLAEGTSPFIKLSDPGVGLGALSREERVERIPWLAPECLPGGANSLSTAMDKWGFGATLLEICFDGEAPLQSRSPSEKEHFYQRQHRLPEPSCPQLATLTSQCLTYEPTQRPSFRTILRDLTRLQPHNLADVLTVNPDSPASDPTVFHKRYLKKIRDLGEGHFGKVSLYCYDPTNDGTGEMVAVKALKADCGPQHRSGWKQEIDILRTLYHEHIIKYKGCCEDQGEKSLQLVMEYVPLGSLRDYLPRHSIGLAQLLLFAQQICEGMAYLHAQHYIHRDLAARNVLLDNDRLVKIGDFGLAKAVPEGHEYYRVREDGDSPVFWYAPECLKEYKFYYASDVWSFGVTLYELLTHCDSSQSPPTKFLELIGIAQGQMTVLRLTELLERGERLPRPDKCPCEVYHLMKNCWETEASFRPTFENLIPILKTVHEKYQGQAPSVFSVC
Sequence of JAK2 (O60674 whole entry): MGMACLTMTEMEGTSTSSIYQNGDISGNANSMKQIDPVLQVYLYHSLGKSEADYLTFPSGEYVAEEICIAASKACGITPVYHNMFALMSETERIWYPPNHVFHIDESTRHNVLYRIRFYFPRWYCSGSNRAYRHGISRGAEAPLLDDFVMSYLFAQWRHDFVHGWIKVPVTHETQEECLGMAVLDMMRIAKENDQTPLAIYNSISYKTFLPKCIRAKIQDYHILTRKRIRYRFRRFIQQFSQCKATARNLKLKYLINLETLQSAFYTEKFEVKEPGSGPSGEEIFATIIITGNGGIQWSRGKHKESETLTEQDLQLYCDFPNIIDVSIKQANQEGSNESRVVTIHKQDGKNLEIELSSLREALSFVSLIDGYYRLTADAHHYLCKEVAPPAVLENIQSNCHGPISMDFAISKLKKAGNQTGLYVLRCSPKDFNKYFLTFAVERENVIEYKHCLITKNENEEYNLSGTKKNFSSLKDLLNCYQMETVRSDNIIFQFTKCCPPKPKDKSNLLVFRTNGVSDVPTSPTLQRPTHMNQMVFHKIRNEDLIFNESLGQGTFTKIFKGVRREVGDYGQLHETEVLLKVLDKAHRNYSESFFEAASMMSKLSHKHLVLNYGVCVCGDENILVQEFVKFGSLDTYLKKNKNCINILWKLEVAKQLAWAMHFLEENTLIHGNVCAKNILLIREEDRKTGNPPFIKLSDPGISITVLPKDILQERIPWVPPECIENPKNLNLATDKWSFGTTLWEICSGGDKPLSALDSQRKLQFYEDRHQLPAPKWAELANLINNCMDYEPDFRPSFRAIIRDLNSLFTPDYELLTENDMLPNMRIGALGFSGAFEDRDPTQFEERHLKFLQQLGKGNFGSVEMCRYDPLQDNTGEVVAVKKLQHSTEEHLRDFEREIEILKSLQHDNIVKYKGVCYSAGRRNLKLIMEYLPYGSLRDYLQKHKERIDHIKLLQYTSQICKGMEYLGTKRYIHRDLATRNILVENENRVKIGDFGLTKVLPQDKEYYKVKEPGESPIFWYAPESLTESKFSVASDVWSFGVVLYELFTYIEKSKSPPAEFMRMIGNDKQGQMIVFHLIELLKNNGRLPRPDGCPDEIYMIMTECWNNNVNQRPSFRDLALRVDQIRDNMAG
Sequence of JAK3 (P52333 whole entry): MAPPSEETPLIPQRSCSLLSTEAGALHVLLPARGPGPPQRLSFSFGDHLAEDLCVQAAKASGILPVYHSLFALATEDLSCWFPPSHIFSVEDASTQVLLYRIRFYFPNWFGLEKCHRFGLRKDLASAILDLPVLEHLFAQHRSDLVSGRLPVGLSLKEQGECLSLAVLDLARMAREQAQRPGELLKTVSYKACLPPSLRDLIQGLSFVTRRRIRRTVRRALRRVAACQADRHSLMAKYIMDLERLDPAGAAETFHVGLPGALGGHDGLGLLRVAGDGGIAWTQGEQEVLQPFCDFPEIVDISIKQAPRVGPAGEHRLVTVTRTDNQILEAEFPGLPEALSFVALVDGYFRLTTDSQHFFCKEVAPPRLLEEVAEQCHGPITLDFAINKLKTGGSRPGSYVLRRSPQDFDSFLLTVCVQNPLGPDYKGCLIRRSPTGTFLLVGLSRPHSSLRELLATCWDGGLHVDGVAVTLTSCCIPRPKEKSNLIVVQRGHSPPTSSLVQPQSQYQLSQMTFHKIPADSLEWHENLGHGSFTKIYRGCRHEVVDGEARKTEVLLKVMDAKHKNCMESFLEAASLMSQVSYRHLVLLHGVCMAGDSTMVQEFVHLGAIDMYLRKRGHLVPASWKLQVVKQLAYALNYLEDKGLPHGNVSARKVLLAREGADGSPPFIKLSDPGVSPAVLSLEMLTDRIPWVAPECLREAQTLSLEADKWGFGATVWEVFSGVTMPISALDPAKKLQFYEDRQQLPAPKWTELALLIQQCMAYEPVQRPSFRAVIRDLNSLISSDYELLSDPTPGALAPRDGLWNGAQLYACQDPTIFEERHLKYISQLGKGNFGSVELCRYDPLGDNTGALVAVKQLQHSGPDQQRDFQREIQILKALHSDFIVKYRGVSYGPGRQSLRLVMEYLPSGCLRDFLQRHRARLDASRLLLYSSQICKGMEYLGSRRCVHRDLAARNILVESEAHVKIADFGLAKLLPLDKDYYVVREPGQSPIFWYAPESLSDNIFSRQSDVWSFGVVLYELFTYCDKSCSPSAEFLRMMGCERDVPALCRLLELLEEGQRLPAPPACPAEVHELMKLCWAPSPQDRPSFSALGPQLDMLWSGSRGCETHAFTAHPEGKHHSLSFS

Cc1cnc(Nc2ccc(OCCN3CCCC3)cc2)nc1Nc1cccc(S(=O)(=O)NC(C)(C)C)c1 [Fedratinib]
IC50 ([1]; Homo sapiens, 72 h): 904 nM | portion excreted in feces as unchanged drug [2]: 23% | portion excreted to GI tract in feces [2]: 77% | IC50 ([3]; Homo sapiens, 72 h): 210 nM

Cc1cnc(Nc2ccc(OCCOc3ccc(/N=N/c4ccc(C(=O)NCCC(=O)O)cc4)cc3C(=O)O)cc2)nc1Nc1cccc(S(=O)(=O)NC(C)(C)C)c1 [MMT3-72, (E)-2-(2-(4-((4-((3-(N-(tert-butyl)sulfamoyl)phenyl)amino)-5-methylpyrimidin-2-yl)amino)phenoxy)ethoxy)-5-((4-((2-carboxyethyl)carbamoyl)phenyl)diazenyl)benzoic acid]
IC50 [4]: 2980 nM | improvement of DAI score or disease severity (in words) [5]: did not improve DAI score or disease severity | improvement of DAI score versus DSS induced colitis ([5]; 5 mg/kg): 5 fold | mice that developed moderate colitis ([5]; 5 mg/kg): 10% | mice that developed severe colitis ([5]; 5 mg/kg): no mouse developed severe colitis | improvement of DAI score in DSS-induced colitis model ([5]; 10 mg/kg): 10 fold | recovery of colon length from DSS-induced colitis ([5]; 10 mg/kg): recovered the colon length | mice that developed moderate colitis ([5]; 10 mg/kg): no mice | mice that developed severe colitis with gross bleeding ([5]; 10 mg/kg): no mice | IC50 ([1]; Homo sapiens, 72 h): 5590 nM | IC50 ([3]; Homo sapiens, 72 h): 515 nM | epithelial loss and immune cell infiltration in colon tissue (H&E) [6]: reduced epithelium disruption and infiltration of immune cells in colon tissues | epithelial loss and immune cell infiltration in colon tissue (H&E) ([6]; listed as MMT3972): reduced epithelial loss and decreased infiltration of immune cells | IC50 [7]: 448 nM | Cmax ([8]; female, C57BL/6, mouse, GI content (stomach, small intestine and colon content), oral 10 mg/kg MMT3-72, read-out: Cmax in GI content (stomach, small intestine and colon content)): > 50000 ng/g | detection in small intestine tissues, colon tissue or systemic circulation ([8]; oral 10 mg/kg MMT3-72, 0-24 hrs): not detected | IC50 [9]: 6820 nM | detection in plasma, colon tissue and feces [10]: only detected in the feces with no detection in the plasma and the colon tissues | IC50 [11]: 199 nM

Cc1cnc(Nc2ccc(OCCO)cc2)nc1Nc1cccc(S(=O)(=O)NC(C)(C)C)c1 [MMT3-72-M2, N-(tert-butyl)-3-((2-((4-(2-hydroxyethoxy)phenyl)amino)-5-methylpyrimidin-4-yl)amino)benzenesulfonamide]
IC50 [4]: 55.2 nM | IC50 ([1]; Homo sapiens, 72 h): 2590 nM | IC50 ([3]; Homo sapiens, 72 h): 332 nM | IC50 [7]: 16.3 nM | Cmax ([8]; female, C57BL/6, mouse, colon tissue and small intestinal tissues, oral 10 mg/kg MMT3-72, read-out: Cmax in colon tissue and small intestinal tissues): > 1500 ng/g | Cmax ([8]; female, C57BL/6, mouse, plasma, oral 10 mg/kg MMT3-72, read-out: Cmax in plasma): 8 ng/mL | concentration at 24 h ([8]; female, C57BL/6, mouse, small and large intestine tissues, oral 10 mg/kg MMT3-72, at 24 hrs, read-out: Cmin in small and large intestine tissues): 88.5 ng/mL | concentration in colon content relative to small intestine content ([8]; oral 10 mg/kg MMT3-72): 10 fold | time after which undetectable in plasma ([8]; oral 10 mg/kg MMT3-72): 4 h | IC50 [9]: 701 nM | detection in plasma, colon tissue and feces [10]: only detected in the colon tissues and the feces with low level in the plasma | IC50 [11]: 2 nM

COCCOCc1cc(Nc2ncc(C)c(Nc3cccc(S(=O)(=O)NC(C)(C)C)c3)n2)ccc1OCCN1CCCC1 [MMT3-83]
IC50 [1]: 2040 nM | IC50 [3]: 645 nM

N#CC[C@H](C1CCCC1)n1cc(-c2ncnc3[nH]ccc23)cn1 [Ruxolitinib]
IC50 ([1]; Homo sapiens, 72 h): 114 nM | IC50 ([3]; Homo sapiens, 72 h): ~145 nM

C[C@@H]1CCN(C(=O)CC#N)C[C@@H]1N(C)c1ncnc2[nH]ccc12 [Tofacitinib, reference compound]
improvement of DAI score or disease severity (in words) [5]: did not improve DAI score or disease severity | improvement of DAI score (in words) ([5]; 5 mg/kg): did not show any improvement of DAI score | mice that developed moderate colitis ([5]; 5 mg/kg): 80% | mice that developed severe colitis ([5]; 5 mg/kg): 40% | improvement of DAI score (in words) ([5]; 10 mg/kg): showed improvement of DAI score | recovery of colon length from DSS-induced colitis ([5]; 10 mg/kg): recovered the colon length | mice that developed moderate colitis ([5]; 10 mg/kg): 20% | mice that developed severe colitis with gross bleeding ([5]; 10 mg/kg): 10%

CC[C@@H]1CN(C(=O)NCC(F)(F)F)C[C@@H]1c1cnc2cnc3[nH]ccc3n12 [Upadacitinib]
IC50 ([1]; Homo sapiens, 72 h): 1010 nM | IC50 ([3]; Homo sapiens, 72 h): 69.6 nM

Deucravacitinib
IC50 [1]: ~347000 nM | IC50 [3]: 7380 nM
